Assay results published in patent US6524785B1, “Perfusion and/or preservation and/or re-perfusion solution during organ transplant” (Centre National de la Recherche Scientifique, priority 1998, dated 2003).
Entries after “also recorded” stand apart in the source; their conditions may differ.

Assays:
isolated, perfused heart = experiment: Isolated perfused rat heart: cardioplegic arrest, cold ischemia and re-perfusion, hemodynamic and metabolic evaluation (P-31 MRS, biochemistry); conditions: L-arginine added versus without
Experimental: The hearts are removed from male Sprague Dawley rats of 350 to 375 g and anaesthetised by intraperitoneal injection of pentobarbital. The hearts are then perfused following the isovolumic contracting heart model. In this model, the heart is perfused with Krebs-Henseleit buffer at 37° C., without phosphate, in a retrograde manner via the aorta, at a constant pressure of 100 mmHg An incompressible balloon, placed in the left ventricle makes the contraction isovolumic. This model makes it possible to evaluate the cardiac function, by the developed pressure and to measure the compliance by measurement of the diastolic pressure. […]
The signals observed in the RMN spectrum of the P-31 are those of inorganic phosphate, phosphocreatine and the 3 phosphorous molecules of ATP. […] The areas and the positions of resonance are determined by using the NMR1 program (New Methods Research Syracuse, N.Y.) on an IBM Risc System 6000 operating system.
The areas measured are corrected by taking into consideration the saturation factors determined by comparing the acquired spectrums to completely relaxed spectrums. The areas of different metabolites can thus be converted into concentrations by referring to the ATPβ area, taking into consideration a cytosolic concentration of 11.6 mM for the ATP (determined by high pressure liquid chromatography). […]

transplanted heart = experiment: Heterotopic transplant of rat heart, 3 hours of ischemia, function and energy metabolism after 1 hour and 24 hours of re-perfusion; format: in vivo; conditions: with versus without arginine, after 1 hour and after 24 hours of re-perfusion; first results
Experimental: FIG. 20 represents, within the framework of a protocol corresponding to 3 hours of ischemia with arrest and preservation in CRMBM solution, the ratios of different energy metabolites after 1 hour of re-perfusion (represented by the white histogram marked with black lines) and 24 hours of re-perfusion (represented by the histogram with white and black hatching).
The cardiac function, as represented by the derivative of developed pressure (dP/dtmax), is indicated by the black histogram without arginine, and by the histogram with white and black hatching with arginine.
A heterotopic transplant of rat heart model has been developed, working where the function and the metabolism can be simultaneously analysed. In this model the functional and metabolic recovery has thus been studied after 1 hour and 24 hours of re-perfusion after ischemia of 3 hours, protected by the invention solution.
The study has made it possible to analyse the long term recovery of the heart, comparing 1 hour and 24 hours of re-perfusion.

SMILES: N=C(N)NCCC[C@H](N)C(=O)O [L-arginine]
- content in adenylic nucleotides (isolated, perfused heart; 8 hours of ischemia and re-perfusion, HPLC): without however affecting
- pool of amino acids during re-perfusion (isolated, perfused heart; protocol 3: 8 hours of ischemia, HPLC in frozen hearts): greater pool of amino acids; also recorded: limits the depletion
- functional recovery of the heart, effect of L-arginine (transplanted heart): beneficial effect
